# Results as given in PubChem BioAssay AID248 (DTP/NCI, 2004).
# Where “and” joins values, the source holds several entries; their conditions need not be identical. Identical values can stand only once. Toxic doses and inconclusive results are not listed.
# System: L1210 leukemia ip in BDF1 mice, survival T/C
# Assay: NCI In Vivo Anticancer Drug Screen. Data for tumor model L1210 Leukemia (intraperitoneal) in B6D2F1 (BDF1) mice
# Details: endpoint: mean survival time, higher = longer survival
# Summary of the method: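 In this screen, tumor-bearing mice given compound are compared to those given vehicle, and their survival values are reported as a treated-to-control quotient.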
# [1] = dose: 75.0 mg/kg/injection, schedule: Q01DX001 (ip), vehicle: saline
# [2] = dose: 100.0 mg/kg/injection, schedule: Q04DX003 (ip), vehicle: Klucel (hydroxypropylcellulose) (HPC)
# [3] = dose: 200.0 mg/kg/injection, schedule: Q04DX003 (ip), vehicle: Klucel (hydroxypropylcellulose) (HPC)
# [4] = dose: 400.0 mg/kg/injection, schedule: Q04DX003 (ip), vehicle: Klucel (hydroxypropylcellulose) (HPC)
# [5] = dose: 50.0 mg/kg/injection, schedule: Q01DX001 (ip), vehicle: saline
# [6] = dose: 100.0 mg/kg/injection, schedule: Q01DX001 (ip), vehicle: saline
# [7] = dose: 200.0 mg/kg/injection, schedule: Q01DX001 (ip), vehicle: saline
# [8] = dose: 400.0 mg/kg/injection, schedule: Q01DX001 (ip), vehicle: saline
# [9] = dose: 100.0 mg/kg/injection, schedule: Q01DX009 (ip), vehicle: saline with Tween-80
# [10] = dose: 200.0 mg/kg/injection, schedule: Q01DX009 (ip), vehicle: saline with Tween-80
# [11] = dose: 12.5 mg/kg/injection, schedule: Q01DX009 (ip), vehicle: saline with Tween-80
# [12] = dose: 25.0 mg/kg/injection, schedule: Q01DX009 (ip), vehicle: saline with Tween-80
compound,measurement,setting,value
CCC[N+](C)(C)C1CCCCC1,T/C,[1],96 % of control and 94 % of control
COc1ccc(C(=O)Nc2ccc([N+](=O)[O-])cc2O)cc1,T/C,[2],103 % of control
same,T/C,[3],104 % of control
same,T/C,[4],97 % of control
O=C(c1ccccc1)C1C(C(=O)c2ccccc2)C(c2ccccc2)N(c2ccccc2)C1c1ccccc1 (centres undefined),T/C,[5],94 % of control
same,T/C,[6],94 % of control
same,T/C,[7],97 % of control
same,T/C,[8],105 % of control
O=c1c(Br)cocc1Br,T/C,[9],92 % of control
same,T/C,[10],97 % of control
same,T/C,"dose: 400.0 mg/kg/injection, schedule: Q01DX009 (ip), vehicle: saline with Tween-80",102 % of control
Cc1ccc(C(C)C)c(Oc2cc(C)ccc2C(C)C)c1,T/C,"dose: 100.0 mg/kg/injection, schedule: Q01DX009 (ip), vehicle: Klucel (hydroxypropylcellulose) (HPC)",98 % of control
same,T/C,[2],97 % of control
same,T/C,"dose: 200.0 mg/kg/injection, schedule: Q01DX009 (ip), vehicle: Klucel (hydroxypropylcellulose) (HPC)",102 % of control
same,T/C,[3],93 % of control
same,T/C,"dose: 400.0 mg/kg/injection, schedule: Q01DX009 (ip), vehicle: Klucel (hydroxypropylcellulose) (HPC)",108 % of control
same,T/C,[4],93 % of control
NC(=O)/C(=C\c1ccc(N=Nc2ccc(/C=C(\C(N)=O)c3cccc4ccccc34)cc2)cc1)c1cccc2ccccc12,T/C,[2],93 % of control
same,T/C,[3],99 % of control
same,T/C,[4],89 % of control
CCOC(=O)c1ccccc1N(O)C(=O)Nc1ccc(Cl)cc1,T/C,"dose: 100.0 mg/kg/injection, schedule: Q04DX003 (ip), vehicle: saline with Tween-80",100 % of control
same,T/C,"dose: 200.0 mg/kg/injection, schedule: Q04DX003 (ip), vehicle: saline with Tween-80",105 % of control
same,T/C,"dose: 400.0 mg/kg/injection, schedule: Q04DX003 (ip), vehicle: saline with Tween-80",103 % of control
CCCCC[n+]1cccc(C#N)c1,T/C,"dose: 37.5 mg/kg/injection, schedule: Q04DX003 (ip), vehicle: saline",100 % of control
same,T/C,[1],96 % of control
same,T/C,"dose: 75.0 mg/kg/injection, schedule: Q04DX003 (ip), vehicle: saline",91 % of control
same,T/C,"dose: 150.0 mg/kg/injection, schedule: Q01DX001 (ip), vehicle: saline",100 % of control
same,T/C,"dose: 150.0 mg/kg/injection, schedule: Q04DX003 (ip), vehicle: saline",100 % of control
CSc1cc(C)n2nnnc2n1,T/C,"dose: 12.5 mg/kg/injection, schedule: Q01DX001 (ip), vehicle: saline",100 % of control
same,T/C,"dose: 25.0 mg/kg/injection, schedule: Q01DX001 (ip), vehicle: saline",96 % of control
same,T/C,[5],100 % of control
COc1cccc(NC(=S)C(C#N)C(=O)Nc2cccc(C(F)(F)F)c2)c1 (centres undefined),T/C,"dose: 25.0 mg/kg/injection, schedule: Q04DX002 (ip), vehicle: gum acacia",106 % of control
same,T/C,"dose: 50.0 mg/kg/injection, schedule: Q04DX002 (ip), vehicle: gum acacia",109 % of control
same,T/C,"dose: 100.0 mg/kg/injection, schedule: Q04DX002 (ip), vehicle: gum acacia",98 % of control and 88 % of control
CCCCCCCCCCCCCCCCCC(=O)OCC(O)COC(C)=O (centres undefined),T/C,[11],98 % of control
same,T/C,[12],95 % of control
same,T/C,"dose: 50.0 mg/kg/injection, schedule: Q01DX009 (ip), vehicle: saline with Tween-80",95 % of control
same,T/C,[9],91 % of control
same,T/C,[10],91 % of control
CC(=O)NCCCC(=O)O,T/C,"dose: 100.0 mg/kg/injection, schedule: Q04DX003 (ip), vehicle: saline",101 % of control
same,T/C,"dose: 200.0 mg/kg/injection, schedule: Q04DX003 (ip), vehicle: saline",103 % of control
same,T/C,"dose: 400.0 mg/kg/injection, schedule: Q04DX003 (ip), vehicle: saline",100 % of control
CCOc1ccc(NC(=O)Oc2cc(C)c(Cl)cc2C(C)C)cc1,T/C,"dose: 100.0 mg/kg/injection, schedule: Q04DX002 (ip), vehicle: Klucel (hydroxypropylcellulose) (HPC)",90 % of control
same,T/C,"dose: 200.0 mg/kg/injection, schedule: Q04DX002 (ip), vehicle: Klucel (hydroxypropylcellulose) (HPC)",110 % of control
same,T/C,"dose: 400.0 mg/kg/injection, schedule: Q04DX002 (ip), vehicle: Klucel (hydroxypropylcellulose) (HPC)",100 % of control
CN(C)/C(N)=N/S(=O)(=O)c1ccc(C#N)cc1,T/C,[6],88 % of control
same,T/C,[7],96 % of control
same,T/C,[8],94 % of control
CCOC(=O)n1cnc2c(Cl)ncnc21,T/C,"dose: 100.0 mg/kg/injection, schedule: Q01DX001 (ip), vehicle: other",109 % of control
same,T/C,"dose: 200.0 mg/kg/injection, schedule: Q01DX001 (ip), vehicle: other",102 % of control
same,T/C,"dose: 400.0 mg/kg/injection, schedule: Q01DX001 (ip), vehicle: other",110 % of control
CN(C)[C@@H]1C(=O)C(C(=O)NCNc2nc3n[nH]nc3c(=O)[nH]2)=C(O)[C@@]2(O)C(=O)C3=C(O)c4c(O)cccc4[C@@](C)(O)[C@H]3C[C@@H]12,T/C,"dose: 12.5 mg/kg/injection, schedule: Q01DX009 (ip), vehicle: acetone",98 % of control
same,T/C,"dose: 25.0 mg/kg/injection, schedule: Q01DX009 (ip), vehicle: acetone",104 % of control
same,T/C,"dose: 50.0 mg/kg/injection, schedule: Q01DX009 (ip), vehicle: acetone",122 % of control
same,T/C,[6],102 % of control
same,T/C,"dose: 100.0 mg/kg/injection, schedule: Q01DX009 (ip), vehicle: acetone",117 % of control
same,T/C,[7],96 % of control
same,T/C,"dose: 200.0 mg/kg/injection, schedule: Q01DX009 (ip), vehicle: acetone",122 % of control
same,T/C,[8],105 % of control
CCOC(=O)/C=C(\CC(=O)OCC)Nc1ccc(C(=O)c2ccccc2)cc1,T/C,[7],89 % of control
Nc1cc(S(=O)(=O)O)cc2ccccc12,T/C,[6],92 % of control
same,T/C,[7],92 % of control
same,T/C,[8],87 % of control
CC(=O)n1cc(C=C2C(=O)CC(C)(C)CC2=O)c2ccccc21,T/C,"dose: 37.5 mg/kg/injection, schedule: Q01DX009 (ip), vehicle: Klucel (hydroxypropylcellulose) (HPC)",89 % of control
same,T/C,"dose: 75.0 mg/kg/injection, schedule: Q01DX009 (ip), vehicle: Klucel (hydroxypropylcellulose) (HPC)",95 % of control
same,T/C,"dose: 150.0 mg/kg/injection, schedule: Q01DX009 (ip), vehicle: Klucel (hydroxypropylcellulose) (HPC)",98 % of control
O=S(=O)(/C(=C\c1ccccc1)c1ccccc1)c1ccccc1,T/C,[6],90 % of control
same,T/C,[7],93 % of control
same,T/C,[8],93 % of control
c1ccc2c(c1)ccc1ccc(C3=NCCO3)cc12,T/C,"dose: 100.0 mg/kg/injection, schedule: Q01DX001 (ip), vehicle: Klucel (hydroxypropylcellulose) (HPC)",94 % of control
same,T/C,"dose: 200.0 mg/kg/injection, schedule: Q01DX001 (ip), vehicle: Klucel (hydroxypropylcellulose) (HPC)",100 % of control
same,T/C,"dose: 400.0 mg/kg/injection, schedule: Q01DX001 (ip), vehicle: Klucel (hydroxypropylcellulose) (HPC)",100 % of control
C[N+](C)(C)CCCC#CC[N+]1(C)CCOCC1,T/C,"dose: 8.4 mg/kg/injection, schedule: Q01DX009 (ip), vehicle: saline",151 % of control
same,T/C,"dose: 14.0 mg/kg/injection, schedule: Q01DX009 (ip), vehicle: saline",197 % of control
same,T/C,"dose: 39.0 mg/kg/injection, schedule: Q01DX009 (ip), vehicle: saline",96 % of control
same,T/C,"dose: 65.0 mg/kg/injection, schedule: Q07DX009 (ip), vehicle: saline",157 % of control
same,T/C,"dose: 108.0 mg/kg/injection, schedule: Q07DX009 (ip), vehicle: saline",190 % of control
same,T/C,"dose: 180.0 mg/kg/injection, schedule: Q07DX009 (ip), vehicle: saline",177 % of control
same,T/C,"dose: 300.0 mg/kg/injection, schedule: Q07DX009 (ip), vehicle: saline",123 % of control
O=S(=O)(OCC#CCOS(=O)(=O)c1ccc(Cl)c(Cl)c1)c1ccc(Cl)c(Cl)c1,T/C,[11],90 % of control
same,T/C,[12],90 % of control
C[C@]12C=CC(=O)C=C1CC[C@H]1[C@@H]3CCC(=O)O[C@@]3(C)CC(=O)[C@@]12F,T/C,"dose: 50.0 mg/kg/injection, schedule: Q01DX001 (sc), vehicle: steriod suspending solution",102 % of control
same,T/C,"dose: 50.0 mg/kg/injection, schedule: Q01DX009 (sc), vehicle: steriod suspending solution",102 % of control
same,T/C,"dose: 100.0 mg/kg/injection, schedule: Q01DX001 (sc), vehicle: steriod suspending solution",104 % of control
same,T/C,"dose: 100.0 mg/kg/injection, schedule: Q01DX009 (sc), vehicle: steriod suspending solution",100 % of control
same,T/C,"dose: 200.0 mg/kg/injection, schedule: Q01DX001 (sc), vehicle: steriod suspending solution",107 % of control
same,T/C,"dose: 200.0 mg/kg/injection, schedule: Q01DX009 (sc), vehicle: steriod suspending solution",97 % of control
same,T/C,"dose: 400.0 mg/kg/injection, schedule: Q01DX001 (sc), vehicle: steriod suspending solution",113 % of control
same,T/C,"dose: 400.0 mg/kg/injection, schedule: Q01DX009 (sc), vehicle: steriod suspending solution",100 % of control
